From patent US7501406B2, “Fluoro substituted 2-oxo-azepan derivatives” (Hoffmann-La Roche Inc., priority 2005, dated 2009)
pIC50: −log10 of the molar value.

target: γ-secretase (Homo sapiens, UniProt P49768); test: in vitro assay of γ-secretase activity (HEK293 membrane fraction, recombinant APP substrate, Abeta ELISA); assay type: biochemical; conditions: γ-secretase inhibition; HEK293 membrane fraction as source of γ-secretase, recombinant C-terminal 100 amino acids of human APP as substrate, Abeta detected by ELISA
From the text: Description of γ-secretase Assay
The activity of test compounds can be evaluated in assays which measure the proteolytic cleavage of suitable substrates by γ-secretase activity. These can be cellular assays where e.g., a substrate of γ-secretase is fused in its cytoplasmic domain to a transcription factor. Cells are transfected with this fusion gene and a reporter gene, e.g., firefly luciferase, which expression is enhanced by the transcription factor. Cleavage of the fused substrate by γ-secretase will lead to expression of the reporter gene which can be monitored in appropriate assays. The γ-secretase activity can also be determined in cell-free in vitro assays where e.g., a cell lysate containing the γ-secretase complex is incubated with a suitable APP-derived substrate which is cleaved to the Abeta peptides. The amount of produced peptides can be determined with specific ELISA assays. Cell lines of neuronal origin secrete Abeta peptides which can be measured with the specific ELISA assay. Treatment with compounds which inhibit γ-secretase leads to a reduction of secreted Abeta thus providing a measure of inhibition.
The in vitro assay of γ-secretase activity uses a HEK293 membrane fraction as a source of γ-secretase and a recombinant APP substrate. The latter consists of the C-terminal 100 amino acids of human APP fused to a 6×Histidin tail for purification which is expressed in E. coli in a regulatable expression vector, e.g. pEt15. This recombinant protein corresponds to the truncated APP fragment which results after […] of the extracellular domain and which constitutes the γ-secretase substrate. The assay principle is described in Li Y M et al, PNAS 97(11), 6138-6143 (2000). Hek293 cells are mechanically disrupted, and the microsomal fraction is isolated by differential centrifugation. The membranes are solubilized in detergent (0.25% CHAPSO) and incubated with the APP substrate. The Abeta peptides which are produced by γ-secretase cleavage of the substrate are detected by specific ELISA assays as described (Brockhaus M et al, Neuroreport 9(7), 1481-1486 (1998).
The preferred compounds show a IC50<10 nM. In the list below are described some data to the γ-secretase inhibition: […]

Compound | pIC50
COc1ccc(CN([C@@H]2CC(F)(F)CCNC2=O)S(=O)(=O)c2ccc(Cl)cc2)c(F)c1F [Example 4, 4-Chloro-N-(2,3-difluoro-4-methoxy-benzyl)-N-((R)-5,5-difluoro-2-oxo-azepan-3-yl)-benzenesulfonamide] | 8.70
O=C1NCCC(F)(F)C[C@H]1N(Cc1ccc(-c2ncn[nH]2)cc1F)S(=O)(=O)c1ccc(Cl)cc1 [Example 12, 4-Chloro-N-((R)-5,5-difluoro-2-oxo-azepan-3-yl)-N-[2-floro-4-(2H-[1,2,4]triazol-3-yl)-benzyl]-benzenesulfonamide] | 8.22
O=C(NC1CC1)c1ccc(CN([C@@H]2CCC(F)(F)CNC2=O)S(=O)(=O)c2ccc(Cl)cc2)cc1 [Example 13, 4-{[(4-Chloro-benzenesulfonyl)-((R)-6,6-difluoro-2-oxo-azepan-3-yl)-amino]-methyl}-N-cyclopropyl-benzamide] | 6.53
COc1ccc(CN([C@@H]2CC(F)(F)CCNC2=O)S(=O)(=O)CCC(F)(F)F)cn1 [Example 16, 3,3,3-Trifluoro-propane-1-sulfonic acid ((R)-5,5-difluoro-2-oxo-azepan-3-yl)-(6-methoxy-pyridin-3-ylmethyl)-amide] | 6.82
COc1ccc(CN([C@@H]2CC(F)(F)CCNC2=O)S(=O)(=O)c2ccc(Cl)s2)cn1 [Example 17, 5-Chloro-thiophene-2-sulfonic acid ((R)-5,5-difluoro-2-oxo-azepan-3-yl)-(6-methoxy-pyridin-3-ylmethyl)-amide] | 6.96
